Literature values, collected in patent US10919913B2, “Spiro[3H-indole-3,2′-pyrrolidin]-2(1H)-one compounds and derivatives as MDM2-p53 inhibitors” (Boehringer Ingelheim International GmbH, priority 2014, dated 2021).

System: p53 wild-type vs. p53 mutant cell lines
Settings: in vitro, PPTP of the NCI (Carol et al. 2013)

In the case of CCOc1cc(C(C)(C)C)ccc1C1=N[C@@](C)(c2ccc(Cl)cc2)[C@@](C)(c2ccc(Cl)cc2)N1C(=O)N1CCN(CCCS(C)(=O)=O)CC1 [RG-7112], the “cytotoxic activity, median IC50 p53 wild-type vs. p53 mutant cell lines” value is given as “lower median IC50 values for p53 wild-type vs. p53 mutant cell lines”.
